Laboratory results as given in patent publication US20080319000A1, “Use of 3,1IB-Cis-Dihydrotetrabenazine for the Treatment of Symptoms of Huntingtons Disease” (CAMBRIDGE LABORATORIES (IRELAND) LIMITED, priority 2005, published 2008).

Tests used:
Male Sprague-Dawley rats = assay: Spontaneous locomotor activity in rats (sedative properties); format: in vivo; conditions: for Inactivity Duration / Large movements Duration / Large movements Occurrence: 20 min period, mean ± SEM n=12
Method: A study was carried out in rats to determine whether the dihydrotetrabenazine isomers of the invention have sedative properties. […] Male Sprague-Dawley rats, (Charles River Laboratories, Saint-Germain/L'Arbresle, France), weighing 200-250 g at the beginning of the study, were used for the studies. […] The rats were allowed to acclimatize to their conditions for at least five days before commencement of the study. The rats received food ([…], France, ref. 811002) and water (tap water in water bottle) ad libitum. Solutions of each test compound in corn oil were freshly prepared on the day of the experiment. Haloperidol was prepared in hydroxyethylcellulose, 0.5% in deionized water. Either the vehicle or the test compounds were administered as a single dose (0.3, 1, 3 and 10 mg/kg, 2 mL/kg i.p.). The reference compound haloperidol (1 mg/kg) was administered i.p. […] The animals were placed in plexiglass cages under a video camera in a room with low light intensity (maximum 50 lux). At forty five minutes and 3 hours after administration, locomotor activity was determined during 20 minute periods using a video image analyzer (Videotrack, View Point, France). […] The number and duration of ambulatory movements and duration of inactivity was measured. At the end of the locomotor activity measurement (45 minutes and 3 hours), palpebral closure and arousal were be scored as follows in the plexiglass cage: […] Image tracking was performed using a video camera placed above the plexiglass cage, recording overall locomotor activity. […] The results were expressed as the means ±SEMs of the 12 individual values. Statistical analyses were carried out using ANOVA (one way) and Dunnett's t-test and with the non parametric test of Kruskal-Wallis followed by a Mann & Whitney U-test for the sedation cotation. A p value of p<0.05 was taken as indicating significance. Group size n=12 Group 1: Reference, haloperidol (1 mg/kg i.p.) Group 2: Vehicle control group (2 ml/kg i.p.) Group 3: tetrabenazine (0.3 mg/kg i.p) Group 4: tetrabenazine (1 mg/kg i.p) Group 5: tetrabenazine (3 mg/kg i.p) Group 6: tetrabenazine (10 mg/kg i.p) Group 7: […]

VMAT1 = biological target: T1, VMAT1 (Homo sapiens, UniProt P54219); assay: VMAT1 affinity; format: binding
T1 sequence (P54219 1-525): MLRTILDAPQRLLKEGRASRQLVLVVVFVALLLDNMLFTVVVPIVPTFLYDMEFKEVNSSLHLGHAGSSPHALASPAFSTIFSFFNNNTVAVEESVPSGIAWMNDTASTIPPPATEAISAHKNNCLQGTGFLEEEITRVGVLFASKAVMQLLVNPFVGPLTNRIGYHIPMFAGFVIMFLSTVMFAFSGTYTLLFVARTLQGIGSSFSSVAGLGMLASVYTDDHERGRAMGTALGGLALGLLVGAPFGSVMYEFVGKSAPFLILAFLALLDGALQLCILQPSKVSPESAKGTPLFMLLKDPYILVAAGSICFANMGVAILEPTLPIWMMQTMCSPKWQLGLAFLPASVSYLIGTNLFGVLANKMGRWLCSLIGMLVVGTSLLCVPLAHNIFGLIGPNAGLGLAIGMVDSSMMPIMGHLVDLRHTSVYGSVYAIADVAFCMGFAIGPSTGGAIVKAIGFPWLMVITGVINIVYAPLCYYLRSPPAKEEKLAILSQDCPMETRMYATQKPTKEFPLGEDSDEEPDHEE

[1] = biological target: 5-hydroxytryptamine isoform 1b (Homo sapiens, UniProt P28222); assay: 5-hydroxytryptamine 1b inhibition; format: binding
[2] = biological target: Dopamine Transporter (DAT) (Homo sapiens, UniProt Q01959); assay: Dopamine Transporter (DAT) binding
[3] = biological target: T2, catechol O-methyl transferase (COMT) (Homo sapiens, UniProt P21964); assay: COMT inhibition; format: biochemical
T2 sequence (P21964 1-271): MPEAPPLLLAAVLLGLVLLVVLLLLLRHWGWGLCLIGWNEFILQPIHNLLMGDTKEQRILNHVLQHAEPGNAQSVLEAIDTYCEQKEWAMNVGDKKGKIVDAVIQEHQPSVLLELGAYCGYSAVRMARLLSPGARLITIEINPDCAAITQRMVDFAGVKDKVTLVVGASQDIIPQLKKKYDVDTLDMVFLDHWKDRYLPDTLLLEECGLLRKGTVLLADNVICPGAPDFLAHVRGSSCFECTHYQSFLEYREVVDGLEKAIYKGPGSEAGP

[4] = biological target: T3, monoamine oxidase isoform B (Homo sapiens, UniProt P27338); assay: Monoamine oxidase B inhibition; format: biochemical
T3 sequence (P27338 1-520): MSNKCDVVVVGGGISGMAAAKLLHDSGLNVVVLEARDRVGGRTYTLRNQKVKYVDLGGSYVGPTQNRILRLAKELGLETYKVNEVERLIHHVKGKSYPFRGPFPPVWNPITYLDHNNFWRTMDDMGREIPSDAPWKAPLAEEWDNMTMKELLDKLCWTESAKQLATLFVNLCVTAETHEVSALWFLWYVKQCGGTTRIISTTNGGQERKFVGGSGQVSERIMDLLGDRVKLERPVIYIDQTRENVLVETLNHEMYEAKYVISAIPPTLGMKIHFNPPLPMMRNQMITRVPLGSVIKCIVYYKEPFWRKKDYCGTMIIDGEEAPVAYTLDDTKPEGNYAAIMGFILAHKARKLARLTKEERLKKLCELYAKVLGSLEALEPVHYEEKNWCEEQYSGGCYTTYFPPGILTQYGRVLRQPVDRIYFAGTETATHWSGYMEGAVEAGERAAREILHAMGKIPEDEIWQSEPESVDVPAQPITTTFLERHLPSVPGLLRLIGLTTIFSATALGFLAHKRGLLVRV

[5] = biological target: 5-hydroxytryptamine isoform 1d (Homo sapiens, UniProt P28221); assay: 5-hydroxytryptamine 1d inhibition; format: binding
dopamine receptor = assay: Dopamine receptor binding
[6] = biological target: serotonin transporter protein SERT (Homo sapiens, UniProt P31645); assay: Serotonin transporter SERT inhibition; format: binding
adrenergic receptors = assay: Adrenergic receptor inhibition; format: binding
[7] = biological target: T4, monoamine oxidase isoform A (Homo sapiens, UniProt P21397); assay: Monoamine oxidase A inhibition; format: biochemical
T4 sequence (P21397 1-527): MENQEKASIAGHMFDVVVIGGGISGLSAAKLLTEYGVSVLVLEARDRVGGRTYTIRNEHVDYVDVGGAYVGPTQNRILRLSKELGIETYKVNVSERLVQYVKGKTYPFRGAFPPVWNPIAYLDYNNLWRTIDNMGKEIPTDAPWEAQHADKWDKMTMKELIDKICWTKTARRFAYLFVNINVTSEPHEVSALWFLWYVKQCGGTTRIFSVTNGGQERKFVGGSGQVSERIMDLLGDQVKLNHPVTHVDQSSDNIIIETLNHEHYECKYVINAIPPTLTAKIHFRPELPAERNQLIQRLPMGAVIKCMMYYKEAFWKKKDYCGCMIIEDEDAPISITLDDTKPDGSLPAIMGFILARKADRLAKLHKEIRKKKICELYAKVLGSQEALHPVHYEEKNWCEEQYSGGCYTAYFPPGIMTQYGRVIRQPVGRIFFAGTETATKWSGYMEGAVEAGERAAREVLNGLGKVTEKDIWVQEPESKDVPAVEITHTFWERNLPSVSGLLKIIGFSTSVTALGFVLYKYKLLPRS

[8] = locomotor studies carried out on rats
[9] = rats, 0.3 mg/kg i.p., 45 minutes after administration
[10] = rats, 0.3 mg/kg i.p., 3 hours after administration
[11] = rats, 1 mg/kg i.p., 45 minutes after administration
[12] = rats, 1 mg/kg i.p., 3 hours after administration
[13] = rats, 3 mg/kg i.p., 45 minutes after administration
[14] = rats, 3 mg/kg i.p., 3 hours after administration
[15] = rats, 10 mg/kg i.p., 45 minutes after administration
[16] = rats, 10 mg/kg i.p., 3 hours after administration
[17] = rats, 0.3, 1, 3 and 10 mg/kg i.p., 45 minutes and 3 hours after administration

Sequence of 5-hydroxytryptamine isoform 1b (P28222 whole entry, canonical isoform): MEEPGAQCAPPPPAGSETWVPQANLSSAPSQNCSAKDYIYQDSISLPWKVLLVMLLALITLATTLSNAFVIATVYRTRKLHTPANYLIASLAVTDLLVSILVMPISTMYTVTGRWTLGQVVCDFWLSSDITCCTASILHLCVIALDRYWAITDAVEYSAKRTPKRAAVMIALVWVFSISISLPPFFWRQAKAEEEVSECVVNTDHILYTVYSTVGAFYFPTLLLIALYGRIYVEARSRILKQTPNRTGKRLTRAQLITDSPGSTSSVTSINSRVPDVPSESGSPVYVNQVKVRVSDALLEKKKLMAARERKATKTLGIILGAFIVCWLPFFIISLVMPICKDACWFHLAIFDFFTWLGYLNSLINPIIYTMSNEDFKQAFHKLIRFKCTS
Sequence of 5-hydroxytryptamine isoform 1d (P28221 whole entry, canonical isoform): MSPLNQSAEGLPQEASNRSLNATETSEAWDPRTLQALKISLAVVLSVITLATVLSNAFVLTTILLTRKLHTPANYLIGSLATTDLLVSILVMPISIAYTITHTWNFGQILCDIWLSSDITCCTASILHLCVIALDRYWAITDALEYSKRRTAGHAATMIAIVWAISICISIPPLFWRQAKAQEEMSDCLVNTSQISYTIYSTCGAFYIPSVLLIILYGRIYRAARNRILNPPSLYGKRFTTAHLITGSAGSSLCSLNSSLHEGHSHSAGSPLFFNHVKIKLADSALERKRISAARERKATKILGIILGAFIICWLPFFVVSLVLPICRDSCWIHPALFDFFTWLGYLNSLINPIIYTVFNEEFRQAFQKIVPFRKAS
Sequence of Dopamine Transporter (DAT) (Q01959 whole entry, species assumed): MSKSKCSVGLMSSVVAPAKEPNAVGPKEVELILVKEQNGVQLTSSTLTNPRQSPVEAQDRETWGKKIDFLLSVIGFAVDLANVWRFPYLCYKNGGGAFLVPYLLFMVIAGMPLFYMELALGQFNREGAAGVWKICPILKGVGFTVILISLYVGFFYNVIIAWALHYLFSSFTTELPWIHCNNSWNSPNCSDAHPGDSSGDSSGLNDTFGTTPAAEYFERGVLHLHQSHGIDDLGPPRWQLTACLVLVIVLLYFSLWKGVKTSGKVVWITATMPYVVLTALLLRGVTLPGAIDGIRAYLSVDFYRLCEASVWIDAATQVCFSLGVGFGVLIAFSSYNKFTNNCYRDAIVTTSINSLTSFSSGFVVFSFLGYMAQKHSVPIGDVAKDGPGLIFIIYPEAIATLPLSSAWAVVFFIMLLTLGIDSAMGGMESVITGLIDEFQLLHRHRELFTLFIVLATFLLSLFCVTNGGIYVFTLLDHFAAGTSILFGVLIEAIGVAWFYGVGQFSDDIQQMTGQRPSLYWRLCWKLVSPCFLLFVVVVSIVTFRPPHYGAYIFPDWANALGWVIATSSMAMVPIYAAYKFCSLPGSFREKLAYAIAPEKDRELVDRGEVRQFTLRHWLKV
Sequence of serotonin transporter protein SERT (P31645 whole entry): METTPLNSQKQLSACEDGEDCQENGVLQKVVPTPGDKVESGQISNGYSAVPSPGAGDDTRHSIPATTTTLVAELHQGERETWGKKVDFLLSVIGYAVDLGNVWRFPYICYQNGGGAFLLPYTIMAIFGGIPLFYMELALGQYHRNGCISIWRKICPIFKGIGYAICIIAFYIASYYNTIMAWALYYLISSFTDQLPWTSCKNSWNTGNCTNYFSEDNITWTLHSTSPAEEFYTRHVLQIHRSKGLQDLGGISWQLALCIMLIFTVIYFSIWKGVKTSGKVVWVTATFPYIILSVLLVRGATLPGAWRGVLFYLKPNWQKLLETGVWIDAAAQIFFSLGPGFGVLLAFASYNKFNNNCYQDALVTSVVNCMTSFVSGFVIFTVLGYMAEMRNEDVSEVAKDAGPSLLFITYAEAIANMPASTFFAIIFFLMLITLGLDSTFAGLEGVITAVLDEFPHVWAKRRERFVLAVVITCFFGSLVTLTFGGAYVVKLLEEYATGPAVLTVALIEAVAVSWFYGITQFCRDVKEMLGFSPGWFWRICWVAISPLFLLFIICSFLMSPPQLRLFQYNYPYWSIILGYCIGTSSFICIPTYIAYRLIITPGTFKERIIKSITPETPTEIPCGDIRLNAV

Structure (SMILES)	sedative effect (Male Sprague-Dawley rats; [8])	Inactivity Duration (Male Sprague-Dawley rats; [9]) [s]	Large movements Duration (Male Sprague-Dawley rats; [9]) [s]	Large movements Occurrence (Male Sprague-Dawley rats; [9])	Inactivity Duration (Male Sprague-Dawley rats; [10]) [s]	Large movements Duration (Male Sprague-Dawley rats; [10]) [s]	Large movements Occurrence (Male Sprague-Dawley rats; [10])	Inactivity Duration (Male Sprague-Dawley rats; [11]) [s]	Large movements Duration (Male Sprague-Dawley rats; [11]) [s]	Large movements Occurrence (Male Sprague-Dawley rats; [11])	Inactivity Duration (Male Sprague-Dawley rats; [12]) [s]	Large movements Duration (Male Sprague-Dawley rats; [12]) [s]	Large movements Occurrence (Male Sprague-Dawley rats; [12])	Inactivity Duration (Male Sprague-Dawley rats; [13]) [s]	Large movements Duration (Male Sprague-Dawley rats; [13]) [s]	Large movements Occurrence (Male Sprague-Dawley rats; [13])	Inactivity Duration (Male Sprague-Dawley rats; [14]) [s]	Large movements Duration (Male Sprague-Dawley rats; [14]) [s]	Large movements Occurrence (Male Sprague-Dawley rats; [14])	Inactivity Duration (Male Sprague-Dawley rats; [15]) [s]	also measured
COc1cc2c(cc1OC)C1CC(=O)C(CC(C)C)CN1CC2 (racemic) [tetrabenazine, 1,3,4,6,7,11b-hexahydro-9,10-dimethoxy-3-(2-methylpropyl)-2H-benzo(a)quinolizin-2-one]	dose related sedative effect	390.4 ± 37.4	66.8 ± 10.7	253 ± 32	545.9 ± 37.1	24.3 ± 4.2	96 ± 14	456.5 ± 50.5	46.5 ± 8.6	189 ± 32	556.9 ± 31.1	21.5 ± 4.0	90 ± 16	697.8 ± 39.7	8.7 ± 5.9	38 ± 25	729.9 ± 26.8	1.7 ± 0.9	9 ± 4	723.1 ± 46.5	Large movements Duration (Male Sprague-Dawley rats; [15]): 0.2 ± 0.2 s; Large movements Occurrence (Male Sprague-Dawley rats; [15]): 1 ± 1; Inactivity Duration (Male Sprague-Dawley rats; [16]): 762.1 ± 40.7 s; Large movements Duration (Male Sprague-Dawley rats; [16]): 0.6 ± 0.3 s; Large movements Occurrence (Male Sprague-Dawley rats; [16]): 3 ± 1; sedative effect (Male Sprague-Dawley rats; [17]): dose-dependent sedative effect; affinity for VMAT1 (VMAT1): only a low affinity
COc1cc2c(cc1OC)C1CC(O)C(CC(C)C)CN1CC2 (single isomer, unassigned; isomer c) [Isomer C]	no sedative effects were observed	323.7 ± 25.6	79.2 ± 10.0	285 ± 34	519.3 ± 33.7	31.4 ± 6.0	113 ± 19	324.6 ± 38.1	71.8 ± 8.3	295 ± 30	510.2 ± 44.9	30.3 ± 6.5	128 ± 24	322.7 ± 27.8	84.0 ± 9.4	308 ± 36	493.6 ± 38.5	30.2 ± 5.5	125 ± 22	368.7 ± 30.9	Large movements Duration (Male Sprague-Dawley rats; [15]): 66.5 ± 9.9 s; Large movements Occurrence (Male Sprague-Dawley rats; [15]): 254 ± 32; Inactivity Duration (Male Sprague-Dawley rats; [16]): 465.7 ± 49.0 s; Large movements Duration (Male Sprague-Dawley rats; [16]): 42.7 ± 8.0 s; Large movements Occurrence (Male Sprague-Dawley rats; [16]): 164 ± 30; sedative effect (Male Sprague-Dawley rats; [17]): no sedative effects at any time; hyperlocomotor effect (Male Sprague-Dawley rats; rats, 3 hours after administration): slight and non-significant hyperlocomotor effect; inhibitory activity against 5-hydroxytryptamine isoform 1b [1]: no inhibitory activity; Dopamine Transporter (DAT) binding activity [2]: lack Dopamine Transporter (DAT) binding activity; inhibitory activity against catechol O-methyl transferase (COMT) [3]: no inhibitory activity; inhibitory activity against monoamine oxidase isoform B [4]: no inhibitory activity; inhibitory activity against 5-hydroxytryptamine isoform 1d [5]: no inhibitory activity; dopamine receptor binding activity (dopamine receptor): only weak or non-existent; inhibition of the serotonin transporter protein SERT [6]: potent inhibitors; inhibition of the adrenergic receptors (adrenergic receptors): either weakly active or inactive; inhibitory activity against monoamine oxidase isoform A [7]: no inhibitory activity
O=C(CCCN1CCC(O)(c2ccc(Cl)cc2)CC1)c1ccc(F)cc1 [haloperidol, reference compound]								637.2 ± 60.1	14.8 ± 8.5	58 ± 33	723.6 ± 50.2	2.2 ± 2.0	9 ± 8								
